Experiments:
[1] = tested on: male food-deprived Lister-hooded rats; test: Regulation of feeding behaviour (food consumption); type: in vivo; settings: p.o.; acute administration; food consumption after 18-hour food withdrawal
Experimental: The in vivo activity of compounds of formula (I) was assayed for ability to regulate feeding behaviour by measuring food consumption in male food-deprived Lister-hooded rats as follows.
Test compounds are assessed following acute administration.
The anorectic drug sibutramine, or the reference CB1 receptor antagonist, SR141716A, normally serves as a positive control. The route of drug administration, drug volume and injection-test-interval are dependent upon the compounds used. The injection-test-interval is the time between dosing and food re-presentation. Typically, animals are fasted such that at the time of food re-presentation food has been withdrawn for an 18-hour period. Food consumption is assayed at pre-determined time points (typically 1, 2 and 4 hours after administration). Food intake data are subjected to one-way analysis of variance (ANOVA) with drug as a between-subjects factor. […] All statistical analyses were performed using Statistica Software, Version 6.0 (Statsoft Inc.) and Microsoft Excel 7.0 (Microsoft Corp.).

[2] = target: T1, recombinant human CB1 receptors (Homo sapiens, UniProt P21554); test: Binding to CB1 receptors; settings: [^3H]-SR-141716A 1 nM; membranes from HEK293 cells expressing recombinant hCB1; Ki calculated from IC50 by Cheng-Prusoff
T1 construct: expressed in transfected cells; host or cells: HEK293 cells (membranes)
Experimental: The binding of compounds of Formula I to recombinant human CB1 receptors was determined in vitro by standard methods, with reference to the procedure described by Rinaldi-Carmona et al. (Rinaldi-Camona, M., Pialot, F., Congy, C., Redon, E., Barth, F., Bachy, A., Breliere, J. C., Soubre, P., LeFur, G., Life Sci. 1996, 58(15), 1239-1247). Membranes were prepared from HEK293 cells expressing recombinant hCB1 receptors. Binding assays are performed in a total volume of 250 μL, containing [^3H]—SR-141716A (1 nM final concentration), membranes and test compound. Non-specific binding is determined using CP55,940 (10 μM). Serial dilutions are performed starting from test compounds as 10 mM solutions in DMSO. Compounds are tested over the concentration range 10^−10 M to 10^−5 M. Ki values are calculated from IC50 values using the Cheng-Prusoff equation.

[3] = tested on: male C57B1/6 mice; test: Blockade of Δ^9-THC induced hypolocomotion in mice; type: in vivo; settings: p.o.; antagonism of reduction in locomotor behaviour induced by 3 mg/kg i.p. Δ^9-THC
Experimental: The in vivo activity of compounds of formula (I) was assayed for ability to antagonise the reduction in locomotor behaviour induced by acute systemic administration of Δ^9-THC in male C57B1/6 mice. The procedure was as follows.
Test compounds are assessed following acute oral or intraperitoneal administration at a dose of 30 mg/kg.
The route of test compound administration, drug volume and injection-test-interval are dependent upon the compounds used. 10 min before testing, a 3 mg/kg dose Δ^9-THC (or vehicle) is administered to mice by the i.p. route. […] The light beams are arranged on a 7 by 4 matrix on a metal grid. 16 grids are connected in series and Perspex boxes, 20 (width)×40 (length)×20 (height) cm, with a flat perforated, Perspex lid are placed in each grid. Mice are placed singly in Perspex boxes and the recording of activity in all 16 boxes starts simultaneously. The mice are left undisturbed to explore the novel activity monitor boxes for 15 minutes while beam breaks are recorded.
Locomotor activity data are subjected to one-way analysis of variance (ANOVA) with drug treatment as a between-subjects factor. […] Significant differences between the vehicle/Δ^9-THC group and Test compound/Δ^9-THC groups are assessed by Newman-Keuls test. All statistical analyses were performed using Statistica Software, Version 6.0 (Statsoft Inc.) and Microsoft Excel 7.0 (Microsoft Corp.).

T1 sequence (P21554 whole entry): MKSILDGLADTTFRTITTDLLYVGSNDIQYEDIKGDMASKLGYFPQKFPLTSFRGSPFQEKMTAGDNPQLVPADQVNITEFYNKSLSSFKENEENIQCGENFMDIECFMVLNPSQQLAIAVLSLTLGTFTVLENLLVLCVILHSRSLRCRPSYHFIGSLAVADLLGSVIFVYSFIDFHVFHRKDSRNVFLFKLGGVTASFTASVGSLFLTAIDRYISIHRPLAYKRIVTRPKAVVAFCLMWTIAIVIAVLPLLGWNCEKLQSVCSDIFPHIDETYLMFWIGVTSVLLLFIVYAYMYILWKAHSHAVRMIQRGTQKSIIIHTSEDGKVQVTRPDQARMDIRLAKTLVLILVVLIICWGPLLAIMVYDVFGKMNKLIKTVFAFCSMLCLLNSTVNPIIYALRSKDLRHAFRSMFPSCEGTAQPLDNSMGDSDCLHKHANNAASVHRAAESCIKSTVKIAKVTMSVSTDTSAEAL

Structure (SMILES)	Ki [2] [nM]	M.E.D (mg/kg), route [1]	Active dose (mg/kg), route [3]
CC(C)(C)NC(=O)N1CC(OC(c2ccc(S(C)(=O)=O)cc2)c2ccccc2C(F)(F)F)C1 (single isomer, unassigned) [Example 140, 3-[(S*)-2-(trifluoromethyl)-4′-(methylsulphonyl)benzhydryloxy]-N-(tert-butyl)azetidine-1-carboxamide]	27		
CC(C)(C)NC(=O)N1CC(OC(c2ccc(Cl)cc2)c2ccccc2Cl)C1 (centres unmarked) [Example 4, 3-(2,4′-dichlorobenzhydryloxy)-N-(tert-butyl)azetidine-1-carboxamide]	4.5	30, p.o. mg/kg	30, p.o. mg/kg
CC(C)(C)NC(=O)N1CC(OC(c2ccc(Cl)cc2)c2ccc(Cl)cc2)C1 [Example 28, 3-(4,4′-dichlorobenzhydryloxy)-N-(tert-butyl)azetidine-1-carboxamide]	80		
O=C(NC12CC3CC(CC(C3)C1)C2)N1CC(OC(c2ccc(Cl)cc2)c2ccc(Cl)cc2)C1 [Example 30, 3-(4,4′-dichlorobenzhydryloxy)-N-(1-adamantyl)azetidine-1-carboxamide]	19		
CC(C)(C)NC(=O)N1CC(OC(c2ccc(Br)cc2F)c2ccccc2C(F)(F)F)C1 (centres unmarked) [Example 94, 3-[2-(trifluoromethyl)-2′-fluoro-4′-bromobenzhydryloxy]-N-(tert-butyl)azetidine-1-carboxamide]	1.3	10, p.o. mg/kg	30, p.o. mg/kg

The remaining molecules from weak to strong by Ki [2], led by results:

Ki [2] [nM]	Structure (SMILES)	M.E.D (mg/kg), route [1]	Active dose (mg/kg), route [3]
4.7	CC(C)(C)NC(=O)N1CC(OC(c2ccc(Cl)cc2)c2ccc(Cl)cc2Cl)C1 (centres unmarked) [Example 1, 3-(2,4,4′-trichlorobenzhydryloxy)-N-(tert-butyl)azetidine-1-carboxamide]	30, p.o. mg/kg	30, p.o. mg/kg
2.3	CC(C)(C)NC(=O)N1CC(OC(c2ccc(Cl)cc2)c2ccccc2C(F)(F)F)C1 (racemic) [Example 81, 3-[2-(trifluoromethyl)-4′-chlorobenzhydryloxy]-N-(tert-butyl)azetidine-1-carboxamide]	3, p.o. mg/kg	30, p.o. mg/kg
0.6	CC(C)(C)NC(=O)N1CC(OC(c2ccc(Cl)cc2)c2ccccc2C(F)(F)F)C1 (single isomer, unassigned) [Example 139, 3-[(R*)-2-(trifluoromethyl)-4′-chlorobenzhydryloxy]-N-(tert-butyl)-azetidine-1-carboxamide]	1, p.o. mg/kg	

From patent publication US7504522B2, “Azetidinecarboxamide derivatives and their use in the treatment of cb1 receptor mediated disorders” (Vernalis Research Limited, priority 2003, dated 2009)
